One block for each compound: values may come before it.
How the values were obtained:
[1] = biological target: T1, Prostaglandin G/H synthase 2 (Ovis aries, UniProt P79208)
T1 sequence (P79208 whole entry): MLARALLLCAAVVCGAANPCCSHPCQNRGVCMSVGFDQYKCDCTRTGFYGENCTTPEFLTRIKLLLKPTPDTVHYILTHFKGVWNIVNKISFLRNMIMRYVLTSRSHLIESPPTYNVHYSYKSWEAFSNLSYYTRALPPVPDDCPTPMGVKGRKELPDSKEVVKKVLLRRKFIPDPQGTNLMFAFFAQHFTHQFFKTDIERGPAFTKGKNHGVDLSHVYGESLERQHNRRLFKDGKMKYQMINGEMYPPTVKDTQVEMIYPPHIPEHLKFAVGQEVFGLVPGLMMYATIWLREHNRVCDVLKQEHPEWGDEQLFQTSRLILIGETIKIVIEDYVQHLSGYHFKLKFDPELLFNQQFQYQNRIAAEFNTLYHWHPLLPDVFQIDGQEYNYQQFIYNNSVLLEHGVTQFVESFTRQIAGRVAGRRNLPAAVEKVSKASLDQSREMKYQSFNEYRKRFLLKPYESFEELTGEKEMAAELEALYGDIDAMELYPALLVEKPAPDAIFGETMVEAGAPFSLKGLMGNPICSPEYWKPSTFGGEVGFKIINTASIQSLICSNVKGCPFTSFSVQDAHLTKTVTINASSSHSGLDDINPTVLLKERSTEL

MCF7 [2] = assay: cells; type: functional, cell-based; conditions: Homo sapiens
Tubulin = type: protein-complex assay, Homo sapiens
[3] = biological target: T1, Prostaglandin G/H synthase 2; remark: listed apart in the source
Rattus norvegicus = species on record: Rattus norvegicus; assay: animal or person; type: functional
MCF7 [4] = assay: cells; type: functional, cell-based; conditions: Homo sapiens, MCF7, 48 h
[5] = biological target: T2, Prostaglandin G/H synthase 1 (Mus musculus, UniProt P22437)
T2 sequence (P22437 whole entry): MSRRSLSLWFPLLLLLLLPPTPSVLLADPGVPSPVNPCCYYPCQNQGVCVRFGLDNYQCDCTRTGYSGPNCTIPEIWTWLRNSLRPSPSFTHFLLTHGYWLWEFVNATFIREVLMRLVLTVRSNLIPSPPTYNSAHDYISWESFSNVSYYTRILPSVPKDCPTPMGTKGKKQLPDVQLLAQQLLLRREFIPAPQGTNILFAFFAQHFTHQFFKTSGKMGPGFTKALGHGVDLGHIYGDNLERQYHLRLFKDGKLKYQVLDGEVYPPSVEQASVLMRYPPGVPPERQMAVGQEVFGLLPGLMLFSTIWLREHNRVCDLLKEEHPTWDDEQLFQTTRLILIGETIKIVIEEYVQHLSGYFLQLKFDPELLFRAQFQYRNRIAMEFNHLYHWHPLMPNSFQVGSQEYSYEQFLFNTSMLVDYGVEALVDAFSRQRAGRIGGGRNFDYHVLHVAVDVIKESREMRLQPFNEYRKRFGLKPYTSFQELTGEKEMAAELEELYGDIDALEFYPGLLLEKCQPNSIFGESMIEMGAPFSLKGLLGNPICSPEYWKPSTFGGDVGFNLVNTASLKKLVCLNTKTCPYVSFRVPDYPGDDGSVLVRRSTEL

IC50 [1]: 196 nM
Compound: [N-]=[N+]=Nc1ccc(C2=C(c3ccccc3)C(=O)OC2)cc1

IC50 [1]: 1550 nM
Compound: Cc1ccc(-c2cc(C(F)(F)F)nn2-c2ccc(N=[N+]=[N-])cc2)cc1

IC50 (MCF7 [2]): 1800 nM
Compound: COc1ccc(-c2coc(=O)n2-c2cc(OC)c(OC)c(OC)c2)cc1N

IC50 (Tubulin): > 50000 nM
Compound: COc1ccc([C@H]2OCO[C@@H]2c2cc(OC)c(OC)c(OC)c2)cc1O

IC50 (MCF7 [2]): 4900 nM
Compound: COc1ccc(-c2oc(O)nc2-c2cc(OC)c(OC)c(OC)c2)cc1N

IC50 [3]: 31.6 nM
Compound: CC1C(c2ccc(F)cc2)=C(c2ccc(S(C)(=O)=O)cc2)ON1C (stereo not given)

Compound: CS(=O)(=O)c1ccc(-c2snnc2-c2ccc(F)cc2)cc1
ED50 (Rattus norvegicus): 0.7 mg/kg

IC50 (MCF7 [4]): 1300 nM
Compound: COC(=O)c1ccc(-n2nc(C(F)(F)F)cc2-c2cc(OC)c(OC)c(OC)c2)cc1

IC50 (Tubulin): 4000 to 6000 nM
Compound: COc1ccc([C@@H]2OCO[C@H]2c2cc(OC)c(OC)c(OC)c2)cc1O

IC50 [5]: 3 nM
Compound: CC1(C)OC(c2ccc(S(N)(=O)=O)cc2)=C(c2cccc(F)c2)C1=O [POLMACOXIB]

From ChEMBL document CHEMBL4325888, “Medicinal chemistry of vicinal diaryl scaffold: A mini review” (Eur J Med Chem, 2019)
